Key:
Format in all cases: cell-based
[1] = tested on: S. aureus (Oxford strain); assay: Growth assay for S. aureus (MIC); details: background statement for auranofin
Protocol: Stock solution of the test compounds (20 mg/ml) in dimethyl sulfoxide (DMSO) were serially diluted in DMSO and each diluted compound added in duplicate to a 96-well plate to a final DMSO concentration of 2% (v/v). An overnight culture of S. aureus (Oxford strain) grown in tryptic soy broth (TSB) was diluted to approximately 5×10^7 cfu/ml and 150 μl of this sample was added to each well of the 96-well plates. Control wells included an ‘untreated’ control with bacteria in TSB in the presence of 2% DMSO and a negative sample (containing 150 μl TSB growth media in the presence of 2% DMSO). Plates were incubated in a shaking incubator at 37° C. for 22-24 hours and bacterial growth assessed by absorbance at a wavelength of 595 nm. The minimum inhibitory concentration (MIC) was defined as the lowest concentration of compound that inhibited growth compared to the no-treatment control.

V. cholerae = assay: In vitro growth inhibition of V. cholerae (MIC); details: background statement for auranofin
K. pneumoniae 13368 = assay: Disk diffusion assay, multidrug resistant clinical isolate
Protocol: (§1) The activity of test compounds against multi-drug resistant bacterial strains was assessed by the disk diffusion assay; a standardised method to assess for the antimicrobial susceptibility of microorganisms (adapted from EUCAST, Version 5, January 2015). In brief, bacterial cultures were suspended in phosphate buffer and spread evenly onto blood agar plates. Cellulose disks (5 mm) were placed onto the agar plates and 3 μl test compound (60 μg/disk) were pipetted to the centre. A panel of standard antibiotics disks (Sigma) were used to control for the antimicrobial resistance profile of the individual strains (quantity as indicated in the table). The plates were then placed into a thermo-incubator and were cultured at 37° C. over-night. Activity was recorded by measuring the zone of clearance (mm) around the disks.

E. coli 13400 = assay: as above
Protocol: as §1

A. baumannii NC13421 = assay: as above
Protocol: as §1

E. faecalis DSM13591 = assay: as above
Protocol: as §1

[2] = tested on: human hepatocyte cell line (HepG2); assay: HepG2 cell inhibition assay (CCK-8 viability); details: 50% growth inhibition vs untreated control, 24 hours
Protocol: Cell counting kit-8 (Sigma, CCK-8) assays were performed to assess the effect of compounds on cell viability. The assay is based on the reduction of a water-soluble tetrazolium salt (WST-8) by cellular dehydrogenases to a formazan dye which can be detected spectroscopically. 96-well plates were seeded with the human hepatocyte cell line (HepG2) at approximately 8×10^3 cells per well in Eagle's Minimum Essential Medium (EMEM) with Earle's salts and sodium bicarbonate supplemented with 10% heat-inactivated foetal bovine serum 2 mM glutamine and 1% non-essential amino acids (NEAA). The following day serial dilutions of compounds (dissolved and diluted in DMSO) were added to the cells in duplicates. Control wells included an ‘untreated’ control where cells were grown in the presence of 1% DMSO and a ‘medium only’ control (plus 1% DMSO). After 24 hours CCK-8 reagent (10 μl) was added to each well and cell viability was assessed by measuring the absorbance at a wavelength of 450 nm after 2-3 h hours. Only living cells can reduce the tetrazolium salts into coloured formazan products. Results were expressed as 50% growth inhibition (TD50) values compared to ‘untreated’ control.

CC(=O)OC[C@H]1O[C@@H]([S-])[C@H](OC(C)=O)[C@@H](OC(C)=O)[C@@H]1OC(C)=O.CCP(CC)CC.[Au+] [Auranofin]
MIC, in vitro growth of S. aureus (Oxford strain) [1]: 0.6 to 0.9 µg/mL | MIC, in vitro growth of V. cholerae (V. cholerae): 2.5 µg/mL

CO/N=C(\C(=O)N[C@@H]1C(=O)N2C(C(=O)O)=C(COC(C)=O)CS[C@H]12)c1csc(N)n1 [Cefotaxime]
Size of Clearance of Zone (K. pneumoniae 13368; antibiotic disk 30 μg): R | Size of Clearance of Zone (E. coli 13400; antibiotic disk 30 μg): 18 mm | Size of Clearance of Zone (A. baumannii NC13421; antibiotic disk 30 μg): R | Size of Clearance of Zone (E. faecalis DSM13591; antibiotic disk 30 μg): R

CO/N=C(\C(=O)N[C@@H]1C(=O)N2C(C(=O)O)=C(CSc3nc(=O)c(=O)[nH]n3C)CS[C@H]12)c1csc(N)n1 [Ceftriaxone]
Size of Clearance of Zone (K. pneumoniae 13368; antibiotic disk 30 μg): R | Size of Clearance of Zone (E. coli 13400; antibiotic disk 30 μg): R | Size of Clearance of Zone (A. baumannii NC13421; antibiotic disk 30 μg): R | Size of Clearance of Zone (E. faecalis DSM13591; antibiotic disk 30 μg): R

C[P](C)(C)=[Au][N]1CCOCC1=O [Compound 1]
HepG2 cell TD50 [2]: 4 µg/mL

C[P](C)(C)=[Au][N]1CCCCC1=O [Compound 2]
HepG2 cell TD50 [2]: 3 µg/mL

CC[P](CC)(CC)=[Au][N]1CCOCC1=O [Compound 3]
HepG2 cell TD50 [2]: 6 µg/mL

CC[N]([Au]=[P](C)(C)C)C(C)=O [Compound 4]
HepG2 cell TD50 [2]: 7 µg/mL

CN1CC[N]([Au]=[P](C)(C)C)C1=O [Compound 5]
HepG2 cell TD50 [2]: 6 µg/mL

C[P](C)(C)=[Au][N]1CCN(c2ccccc2)C1=O [Compound 6]
HepG2 cell TD50 [2]: 9 µg/mL

C[P](C)(C)=[Au][N]1C(=O)CCC1=O [Compound 7]
HepG2 cell TD50 [2]: 11 µg/mL

C[P](C)(C)=[Au][N]1C(=O)COCC1=O [Compound 8]
HepG2 cell TD50 [2]: 9 µg/mL

C[P](C)(C)=[Au][N]1CCOC1=O [Compound 9]
HepG2 cell TD50 [2]: 7 µg/mL

C[P](C)(C)=[Au][N]1C(=O)c2ccccc2C1=O [Compound 10]
HepG2 cell TD50 [2]: 15 µg/mL

CC[P](CC)(CC)=[Au][N]1C(=O)c2ccccc2C1=O [Compound 11]
HepG2 cell TD50 [2]: 4 µg/mL

C[P](C)(C)=[Au][N]1C(=O)COc2ccccc21 [Compound 12]
HepG2 cell TD50 [2]: 4 µg/mL

C[P](C)(C)=[Au][n]1ccccc1=O [Compound 13]
HepG2 cell TD50 [2]: 3 µg/mL

C[P](C)(C)=[Au][N]1C(=O)CCCC1=O [Compound 14]
HepG2 cell TD50 [2]: 7 µg/mL

C[P](C)(C)=[Au][N]1C(=O)C2CCCN2C1=O (stereo not shown) [Compound 15]
HepG2 cell TD50 [2]: 3 µg/mL

CC1C(=O)[N]([Au]=[P](C)(C)C)C(=O)N1c1ccccc1 (stereo not shown) [Compound 16]
HepG2 cell TD50 [2]: 10 µg/mL

CN1C(=O)[N]([Au]=[P](C)(C)C)C(=O)C1(C)C [Compound 17]
HepG2 cell TD50 [2]: 8 µg/mL

C[P](C)(C)=[Au][N]1CCCOC1=O [Compound 18]
HepG2 cell TD50 [2]: 5 µg/mL

CN1C(=O)[N]([Au]=[P](C)(C)C)C(=O)C12CCCC2 [Compound 19]
HepG2 cell TD50 [2]: 13 µg/mL

C[P](C)(C)=[Au][N]1Cc2ccccc2C1=O [Compound 20]
HepG2 cell TD50 [2]: 2 µg/mL

C[N]([Au]=[P](C)(C)C)S(C)(=O)=O [Compound 21]
HepG2 cell TD50 [2]: 4 µg/mL

C[N]([Au]=[P](C)(C)C)S(=O)(=O)c1ccccc1 [Compound 24]
HepG2 cell TD50 [2]: 5 µg/mL

C[P](C)(C)=[Au][n]1ccn(-c2ccccc2)c1=O [Compound 25]
HepG2 cell TD50 [2]: 5 µg/mL

COc1ccc(N2CC[N]([Au]=[P](C)(C)C)C2=O)cc1 [Compound 26]
HepG2 cell TD50 [2]: 6 µg/mL

C[P](C)(C)=[Au][N]1CCN(c2ccc(F)cc2)C1=O [Compound 27]
HepG2 cell TD50 [2]: 4 µg/mL

C[P](C)(C)=[Au][N]1CCCS1(=O)=O [Compound 28]
HepG2 cell TD50 [2]: 9 µg/mL

C[P](C)(C)=[Au][N]1CCCCS1(=O)=O [Compound 29]
HepG2 cell TD50 [2]: 3 µg/mL

CC1(C)OC(=O)[N]([Au]=[P](C)(C)C)C1=O [Compound 30]
HepG2 cell TD50 [2]: 3 µg/mL

C[P](C)(C)=[Au][N]1CCCC1=O [Compound 31]
HepG2 cell TD50 [2]: 3 µg/mL

C[P](C)(C)=[Au][n]1cccn1 [Compound 36]
HepG2 cell TD50 [2]: 7.3 µg/mL

C[P](C)(C)=[Au][n]1ccnn1 [Compound 37]
HepG2 cell TD50 [2]: 11.9 µg/mL

C[P](C)(C)=[Au][n]1cnnc1 [Compound 38]
HepG2 cell TD50 [2]: 7 µg/mL

COc1ccc2c(c1)nc[n]2[Au]=[P](C)(C)C [Compound 39]
HepG2 cell TD50 [2]: 9 µg/mL

C[P](C)(C)=[Au][n]1cnnn1 [Compound 40]
HepG2 cell TD50 [2]: 6 µg/mL

C[P](C)(C)=[Au][n]1cc(C(F)(F)F)cn1 [Compound 41]
HepG2 cell TD50 [2]: 16 µg/mL

C[P](C)(C)=[Au][n]1ncc2cccnc21 [Compound 42]
HepG2 cell TD50 [2]: 5 µg/mL

C[P](C)(C)=[Au][n]1ccnc1 [Compound 43]
HepG2 cell TD50 [2]: 4 µg/mL

C[P](C)(C)=[Au][n]1cnc2ccccc21 [Compound 44]
HepG2 cell TD50 [2]: 5 µg/mL

Cc1nc2ccccc2[n]1[Au]=[P](C)(C)C [Compound 45]
HepG2 cell TD50 [2]: 5 µg/mL

Cc1nnc(C)[n]1[Au]=[P](C)(C)C [Compound 46]
HepG2 cell TD50 [2]: 5 µg/mL

Cc1ncc[n]1[Au]=[P](C)(C)C [Compound 47]
HepG2 cell TD50 [2]: 3.9 µg/mL

C[P](C)(C)=[Au][n]1ccnc1C(F)(F)F [Compound 48]
HepG2 cell TD50 [2]: 4 µg/mL

COc1ccc2c(cn[n]2[Au]=[P](C)(C)C)c1 [Compound 50]
HepG2 cell TD50 [2]: 3 µg/mL

C[P](C)(C)=[Au][n]1cnc2cccnc21 [Compound 51]
HepG2 cell TD50 [2]: 3 µg/mL

C[C@@H](O)[C@H]1C(=O)N2C(C(=O)O)=C(S[C@@H]3CN[C@H](C(=O)Nc4cccc(C(=O)O)c4)C3)[C@H](C)[C@H]12 [Ertapenem]
Size of Clearance of Zone (K. pneumoniae 13368; antibiotic disk 10 μg): R | Size of Clearance of Zone (E. coli 13400; antibiotic disk 10 μg): 30 mm | Size of Clearance of Zone (A. baumannii NC13421; antibiotic disk 10 μg): R | Size of Clearance of Zone (E. faecalis DSM13591; antibiotic disk 10 μg): 14 mm

C[C@@H](O)[C@H]1C(=O)N2C(C(=O)O)=C(SCCN=CN)C[C@H]12 [Imipenem]
Size of Clearance of Zone (K. pneumoniae 13368; antibiotic disk 10 μg): 18 mm | Size of Clearance of Zone (E. coli 13400; antibiotic disk 10 μg): 29 mm | Size of Clearance of Zone (A. baumannii NC13421; antibiotic disk 10 μg): R | Size of Clearance of Zone (E. faecalis DSM13591; antibiotic disk 10 μg): 26 mm

CC(=O)NC[C@H]1CN(c2ccc(N3CCOCC3)c(F)c2)C(=O)O1 [Linezolid]
Size of Clearance of Zone (E. faecalis DSM13591; antibiotic disk 10 μg): 22 mm

C[C@@H](O)[C@H]1C(=O)N2C(C(=O)O)=C(S[C@@H]3CN[C@H](C(=O)N(C)C)C3)[C@H](C)[C@H]12 [Meropenem]
Size of Clearance of Zone (K. pneumoniae 13368; antibiotic disk 10 μg): 22 mm | Size of Clearance of Zone (A. baumannii NC13421; antibiotic disk 10 μg): R | Size of Clearance of Zone (E. faecalis DSM13591; antibiotic disk 10 μg): 17 mm

CN[C@H](CC(C)C)C(=O)N[C@H]1C(=O)N[C@@H](CC(N)=O)C(=O)N[C@H]2C(=O)N[C@H]3C(=O)N[C@H](C(=O)N[C@H](C(=O)O)c4cc(O)cc(O)c4-c4cc3ccc4O)[C@H](O)c3ccc(c(Cl)c3)Oc3cc2cc(c3O[C@@H]2O[C@H](CO)[C@@H](O)[C@H](O)[C@H]2O[C@H]2C[C@](C)(N)[C@H](O)[C@H](C)O2)Oc2ccc(cc2Cl)[C@H]1O [Vancomycin]
Size of Clearance of Zone (E. faecalis DSM13591; antibiotic disk 30 μg): R

Colistin
Size of Clearance of Zone (K. pneumoniae 13368; antibiotic disk 10 μg): 9.5 mm | Size of Clearance of Zone (E. coli 13400; antibiotic disk 10 μg): 12 mm | Size of Clearance of Zone (A. baumannii NC13421; antibiotic disk 10 μg): 11 mm

From patent publication US20180369258A1, “ANTI-BACTERIAL COMPOUNDS BASED ON AMINO-GOLD PHOSPHINE COMPLEXES” (priority 2015, published 2018)
